Source: BindingDB's records for doi:10.1021/jm990281p (Parke-Davis Pharmaceutical Research, 2000)

Tests used:
[1] = biological target: T1, Dimer of Gag-Pol polyprotein [489-587] (Human immunodeficiency virus 1, UniProt P12497); test: Protease Inhibition Assay; conditions: pH 6.2; 37 °C
T1 construct: 489-587
Procedure: (§1) Sensitivity of HIV-1 protease activity to protease inhibitors was determined by a peptide substrate cleavage assay. Protease products were analyzed on a reverse-phase high-pressure liquid chromatograph.

[2] = biological target: T2, Gag-Pol polyprotein [489-587] (Human immunodeficiency virus 1, UniProt P04585); test: Protease Inhibition Assay
T2 construct: 489-587
Procedure: as §1

[3] = biological target: T2, Gag-Pol polyprotein [489-587]

Compound | IC50 [1] | Ki [1] | IC50 [2] | Ki [3]
Cc1cc(SC2C(=O)CC(CCc3ccc(O)cc3)(C(C)C)OC2=O)c(C(C)(C)C)cc1NS(=O)(=O)c1ccc(C#N)cc1 (stereo not drawn) [N-[5-tert-butyl-4-({4-hydroxy-6-[2-(4-hydroxyphenyl)ethyl]-2-oxo-6-(propan-2-yl)-5,6-dihydro-2H-pyran-3-yl}sulfanyl)-2-methylphenyl]-4-cyanobenzene-1-sulfonamide] | 2.2 nM | 0.41 nM | 2.2 nM | 0.41 nM
Cc1cc(SC2C(=O)CC(CCc3ccc(O)cc3)(C(C)C)OC2=O)c(C(C)(C)C)cc1NS(=O)(=O)c1ccccc1 (stereo not drawn) [N-[5-tert-butyl-4-({4-hydroxy-6-[2-(4-hydroxyphenyl)ethyl]-2-oxo-6-(propan-2-yl)-5,6-dihydro-2H-pyran-3-yl}sulfanyl)-2-methylphenyl]benzenesulfonamide] | 1.8 nM | 0.53 nM | 1.8 nM | 0.53 nM
